# Results as given in patent US20260265244A1, “HETEROCYCLIC COMPOUNDS AS STING ANTAGONISTS” (Boehringer Ingelheim International GmbH, priority 2022, published 2026).
# Columns and labels:
# human STING WT (R232) = biological target: T1, human STING WT (R232) (Homo sapiens, UniProt Q86WV6, H232R); assay: Human STING HTRF binding assay (competitive, Cisbio 64BDSTGPEG)
# T1 construct: purchased Cisbio 64BDSTGPEG
# Procedure, shortened: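 Competitive HTRF: 6His-tagged human STING WT R232 binding domain (residues 138-379) with anti-6His Cryptate antibody and d2-labeled STING ligand, 180 min at room temperature, 1% DMSO, 8 concentrations from 10 μM or 1 μM top in ~1:5 steps. HTRF ratios were calibrated to a cGAMP standard curve and IC50 obtained by 4-parameter logistic fit.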
# [1] = biological target: T2, cGAMP binding domain of wild-type (GRR) human STING, residues 155-341 (Homo sapiens, UniProt Q86WV6, H232R); assay: Increase of stability of STING protein against thermal denaturation, Differential Scanning Fluorimetry (DSF)
# T2 construct: His-TEV-hSTING (WT); TEV protease cleavage site (N); made in house; host or cells: E. coli BL21 DE3
# Procedure, shortened: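 3 µM His-tagged protein with 100 uM compound, 5×SYPRO Orange, 2% DMSO in 20 mM Tris, 150 mM NaCl, pH7.5; 15–95 °C ramp in 0.5 °C steps (15 s/cycle). Tm from Boltzmann fit of the dye melt curve, duplicates averaged, repeated if SD>1.5 °C; ΔTm = Tm with compound minus Tm of protein alone.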
# T1 sequence (Q86WV6 138-379 H232R): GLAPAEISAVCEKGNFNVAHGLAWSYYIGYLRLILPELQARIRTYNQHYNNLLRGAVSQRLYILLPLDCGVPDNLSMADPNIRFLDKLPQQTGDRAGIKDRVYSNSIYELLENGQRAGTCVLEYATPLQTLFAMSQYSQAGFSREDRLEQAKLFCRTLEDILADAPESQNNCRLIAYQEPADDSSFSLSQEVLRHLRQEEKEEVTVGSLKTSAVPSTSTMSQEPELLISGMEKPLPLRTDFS
# T2 sequence (Q86WV6 with tags, fused parts or gaps H232R): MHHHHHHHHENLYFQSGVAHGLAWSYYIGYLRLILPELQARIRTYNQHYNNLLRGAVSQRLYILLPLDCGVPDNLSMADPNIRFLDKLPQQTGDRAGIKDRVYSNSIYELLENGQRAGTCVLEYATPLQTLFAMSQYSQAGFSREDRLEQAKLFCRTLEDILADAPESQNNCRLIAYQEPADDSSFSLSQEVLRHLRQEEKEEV
SMILES,IC50 (human STING WT (R232)) [nM],DSF [1] [K]
"Cc1nc2nn(C)cc2cc1-n1nc(-c2cccc3nn(C[C@H](OCCC(C)(C)O)c4ccccc4)cc23)c(C(C)C)c1C [Example 74, 4-[(1R)-2-[4-(1-{2,6-dimethyl-2H-pyrazolo[3,4-b]pyridin-5-yl}-5-methyl-4-(propan-2-yl)-1H-pyrazol-3-yl)-2H-indazol-2-yl]-1-phenylethoxy]-2-methylbutan-2-ol]",16.9,25
Cc1c(C(C)C)c(-c2cccc3nn(C[C@H](O)c4ccccc4)cc23)nn1-c1ccn2c(C(F)F)nnc2c1C1CC1 [Example 76],17.4,26
"Cc1nc2nn(C)cc2cc1-n1nc(-c2cccc3nn(C[C@H](OCCF)c4ccccc4)cc23)c(C(C)C)c1C [Example 78, 4-(1-{2,6-dimethyl-2H-pyrazolo[3,4-b]pyridin-5-yl}-5-methyl-4-(propan-2-yl)-1H-pyrazol-3-yl)-2-[(2R)-2-(2-fluoroethoxy)-2-phenylethyl]-2H-indazole]",16.7,24
"C=CCO[C@@H](Cn1cc2c(-c3nn(-c4cc5cn(C)nc5nc4C)c(C)c3C(C)C)cccc2n1)c1ccccc1 [Example 79, 4-(1-{2,6-dimethyl-2H-pyrazolo[3,4-b]pyridin-5-yl}-5-methyl-4-(propan-2-yl)-1H-pyrazol-3-yl)-2-[(2R)-2-phenyl-2-(prop-2-en-1-yloxy)ethyl]-2H-indazole]",20.1,23
"Cc1c(C(C)C)c(-c2cccc3nn(C[C@H](O)c4ccccc4)cc23)nn1-c1cc2cn(C)nc2nc1C1(C)CC1 [Example 80, (1R)-2-(4-{5-methyl-1-[2-methyl-6-(1-methylcyclopropyl)-2H-pyrazolo[3,4-b]pyridin-5-yl]-4-(propan-2-yl)-1H-pyrazol-3-yl}-2H-indazol-2-yl)-1-phenylethan-1-ol]",17.5,26
"CCCO[C@@H](Cn1cc2c(-c3nn(-c4cc5cn(C)nc5nc4C)c(C)c3C(C)C)cccc2n1)c1ccccc1 [Example 81, 4-(1-{2,6-dimethyl-2H-pyrazolo[3,4-b]pyridin-5-yl}-5-methyl-4-(propan-2-yl)-1H-pyrazol-3-yl)-2-[(2R)-2-phenyl-2-propoxyethyl]-2H-indazole]",31.1,22
"Cc1nc2nn(C)cc2cc1-n1nc(-c2cccc3nn(CC(O)C4CCCCC4)cc23)c(C(C)C)c1C (centres unmarked) [Example 83, 1-cyclohexyl-2-[4-(1-{2,6-dimethyl-2H-pyrazolo[3,4-b]pyridin-5-yl}-5-methyl-4-(propan-2-yl)-1H-pyrazol-3-yl)-2H-indazol-2-yl]ethan-1-ol]",23.7,24
"CNc1nc2nn(C)cc2cc1-n1nc(-c2cccc3nn(C[C@H](O)c4ccccc4)cc23)c(C(C)C)c1C [Example 84, (1R)-2-(4-{5-methyl-1-[2-methyl-6-(methylamino)-2H-pyrazolo[3,4-b]pyridin-5-yl]-4-(propan-2-yl)-1H-pyrazol-3-yl}-2H-indazol-2-yl)-1-phenylethan-1-ol]",21,27
"COCCO[C@@H](Cn1cc2c(-c3nn(-c4cc5cn(C)nc5nc4C)c(C)c3C(C)C)cccc2n1)c1ccccc1 [Example 85, 4-(1-{2,6-dimethyl-2H-pyrazolo[3,4-b]pyridin-5-yl}-5-methyl-4-(propan-2-yl)-1H-pyrazol-3-yl)-2-[(2R)-2-(2-methoxyethoxy)-2-phenylethyl]-2H-indazole]",15.9,23
"Cc1c(C(C)C)c(-c2cccc3nn(C[C@H](O)c4ccccc4)cc23)nn1-c1cc2cn(C)nc2nc1N(C)C [Example 87, (1R)-2-(4-{1-[6-(dimethylamino)-2-methyl-2H-pyrazolo[3,4-b]pyridin-5-yl]-5-methyl-4-(propan-2-yl)-1H-pyrazol-3-yl}-2H-indazol-2-yl)-1-phenylethan-1-ol]",20.2,24
"Cc1nc2nn(C)cc2cc1-n1nc(-c2cccc3nn(CC(O)c4ccc(Br)cc4)cc23)c(C(C)C)c1C (centres unmarked) [Example 88, 1-(4-Bromophenyl)-2-[4-(1-{2,6-dimethyl-2H-pyrazolo[3,4-b]pyridin-5-yl}-5-methyl-4-(propan-2-yl)-1H-pyrazol-3-yl)-2H-indazol-2-yl]ethan-1-ol]",97.9,25
"Cc1c(C(C)C)c(-c2cccc3nn(C[C@H](O)c4ccccc4)cc23)nn1-c1cc2cn(C)nc2nc1C(C)(C)O [Example 89, 2-[5-(3-{2-[(2R)-2-hydroxy-2-phenylethyl]-2H-indazol-4-yl}-5-methyl-4-(propan-2-yl)-1H-pyrazol-1-yl)-2-methyl-2H-pyrazolo[3,4-b]pyridin-6-yl]propan-2-ol]",17.2,24
"Cn1cc2cc(-c3nc(-c4cccc5nn(C[C@H](O)c6ccc(OCC#N)cc6)cc45)c(C4CC4)n3C)c(C3CC3)nc2n1 [Example 90, 2-{4-[(1R)-2-[4-(5-cyclopropyl-2-{6-cyclopropyl-2-methyl-2H-pyrazolo[3,4-b]pyridin-5-yl}-1-methyl-1H-imidazol-4-yl)-2H-indazol-2-yl]-1-hydroxyethyl]phenoxy} acetonitrile]",19.9,29
"CCc1c(-c2cccc3nn(C[C@H](O)c4ccccc4)cc23)nn(-c2cc3cn(C)nc3nc2C)c1CC [Example 93, (1R)-2-[4-(1-{2,6-dimethyl-2H-pyrazolo[3,4-b]pyridin-5-yl}-4,5-diethyl-1H-pyrazol-3-yl)-2H-indazol-2-yl]-1-phenylethan-1-ol]",17.4,26
"Cc1c(-n2nc(-c3cccc4nn(C[C@H](O)c5ccccc5)cc34)c(C(C)C)c2C)ccn2c(C)cnc12 [Example 94, (1R)-2-[4-(1-{3,8-dimethylimidazo[1,2-a]pyridin-7-yl}-5-methyl-4-(propan-2-yl)-1H-pyrazol-3-yl)-2H-indazol-2-yl]-1-phenylethan-1-ol]",17.1,27

# Stronger by IC50 (human STING WT (R232)), values ahead:
IC50 (human STING WT (R232)) [nM],DSF [1] [K],SMILES
11.4,24,"Cc1nc2nn(C)cc2cc1-n1nc(-c2cccc3nn(C[C@H](O)c4ccccc4)cc23)c(C(C)CO)c1C (stereo partly drawn) [Example 95, 2-(1-{2,6-dimethyl-2H-pyrazolo[3,4-b]pyridin-5-yl}-3-{2-[(2R)-2-hydroxy-2-phenylethyl]-2H-indazol-4-yl}-5-methyl-1H-pyrazol-4-yl)propan-1-ol]"
9.8,28,COC(C)c1nc2nn(C)cc2cc1-n1nc(-c2cccc3nn(C[C@H](O)c4ccccc4)cc23)c(C(C)C)c1C (some centres unmarked) [Example 75]
7.6,29,"Cn1cc([C@@H](O)Cn2cc3c(-c4nc(-c5cc6cn(C)nc6nc5C5CC5)n(C)c4C4CC4)cccc3n2)cn1 [Example 91, (1R)-2-[4-(5-cyclopropyl-2-{6-cyclopropyl-2-methyl-2H-pyrazolo[3,4-b]pyridin-5-yl}-1-methyl-1H-imidazol-4-yl)-2H-indazol-2-yl]-1-(1-methyl-1H-pyrazol-4-yl)ethan-1-ol]"
6.9,28,"Cc1c(-n2nc(-c3cccc4nn(C[C@H](O)c5ccccc5)cc34)c(C(C)C)c2C)ccn2c(C)nnc12 [Example 86, (1R)-2-[4-(1-{3,8-dimethyl-[1,2,4]triazolo[4,3-a]pyridin-7-yl}-5-methyl-4-(propan-2-yl)-1H-pyrazol-3-yl)-2H-indazol-2-yl]-1-phenylethan-1-ol]"
5.1,28,"[2H][C@](O)(Cn1cc2c(-c3nn(-c4cc5cn(C)nc5nc4C)c(C)c3C(C)C)cccc2n1)c1ccccc1 [Example 3, (1R)-2-[4-(1-{2,6-dimethyl-2H-pyrazolo[3,4-b]pyridin-5-yl}-5-methyl-4-(propan-2-yl)-1H-pyrazol-3-yl)-2H-indazol-2-yl]-1-phenyl(1-^2H)ethan-1-ol]"
4.3,24,"Cc1nc2nn(C)cc2cc1-n1nc(-c2cccc3nn(C[C@H](O)c4ccccc4)cc23)c(C2(C)CC2)c1C [Example 92, (1R)-2-[4-(1-{2,6-Dimethyl-2H-pyrazolo[3,4-b]pyridin-5-yl}-5-methyl-4-(1-methylcyclopropyl)-1H-pyrazol-3-yl)-2H-indazol-2-yl]-1-phenylethan-1-ol]"
3.2,27,"Cc1cc([C@@H](O)Cn2cc3c(-c4nn(-c5cc6cn(C)nc6nc5C)c(C)c4C(C)C)cccc3n2)ccn1 [Example 82, (1R)-2-[4-(1-{2,6-dimethyl-2H-pyrazolo[3,4-b]pyridin-5-yl}-5-methyl-4-(propan-2-yl)-1H-pyrazol-3-yl)-2H-indazol-2-yl]-1-(2-methylpyridin-4-yl)ethan-1-ol]"
